The target of one series is USP5 (Homo sapiens). The series is described as follows: Deubiquitination assay, cleavage of GST-Ubiquitin-HA by USP5 (SDS-PAGE band intensity). The series is classed as biochemical. As to the method: (§1) For in vitro ubiquitination assays, 500 µM of ubiquitin was used for each ubiquitination reaction as described previously, in the absence or presence of 50–500 µM of CR. […] The generation of GST-ubiquitin from GST-Ubiquitin-HA as the mobility shifts were analyzed on 12.5% SDS-PAGE visualized by Coomassie blue staining. Band intensities were quantified by ImageJ [55] and used to generate the IC50 curves (log inhibitor vs. normalized response with variable slope) by GraphPad Prism version 6.0 for Windows (GraphPad Software, San Diego, CA, USA, www.graphpad.com).

A further series relates to USP4. The series is described as follows: TOP flash luciferase reporter assay of β-catenin with USP4. The conditions noted are these: HEK293T, CR 0–30 μM, 24 h. The series is classed as cell-based. The method, then:
Luciferase reporter assays were performed as described previously. Briefly, HEK293T cells were seeded in 12-well plates at 1 × 10^5 cells per well and incubated for 24 h before being transfected with either SRT-USP4 or Myc-β-catenin expression plasmids, along with the T cell factor (TCF) reporter plasmid (TOP flash) driving the expression of the luciferase gene. Equal amounts of total DNA in transfections were maintained by adding the control plasmids in each transfection experiment. 24 h post-transfection, cells were treated with CR (0–30 µM) for 24 h. After that, cells were harvested for luciferase reporter assays. Luciferase activity was measured according to the manufacturer’s instructions (Promega, Madison, WI, USA). page 5: (a) (b) Figure S5. CR inhibits USP4 deubiquitinase activity on its substrate, ß-catenin on the TOP flash reporter activity. (a) Cells were co-transfected with either SRT-USP4 or Myc‐β‐catenin expression plasmids, and TOP flash reporter plasmid containing a β‐catenin‐induced TCF reporter. 24-h post-transfection, CR was added at increasing concentrations (0 – 30 µM) and the cells were further cultured for 24 h. A top-flash activity assay of ß-catenin was conducted and (b) Western blot analysis with the indicated antibody was performed in parallel. […]
(In general: In a reporter assay the amount or activity of a reporter protein is the signal.)

Series [1] relates to H1299 cells. The series is described as follows: Dox-induced cell death, colorimetric cell viability, H1299. The conditions noted are these: 10 µM CR or 5 µM NSC697923 12 h, then Dox 1.25–5.0 μM 12 h. The series is classed as cell-based. As to the method: (§2) Figure 7 CR enhances Dox sensitivity of cancer cells. (a,b) Enhancement of Dox-induced apoptosis of cancer cells by CR treatment. Dox–induced apoptosis of H1299 (a) and HCT116 (b) was quantified by colorimetric cell viability after treating 10 µM CR for 12 h followed by 12h treatment of Dox (0.0–5.0 µM). […] Caspase activity was quantified by luminogenic caspase activity assay. […] All error bars represent the standard deviation from at least four independent experiments. Statistical significance was calculated by the Student’s t-test (** p < 0.01, *** p < 0.001).
Cell viability assays were performed as described previously. For the caspase assays, the media were removed, and cells were lysed in 200 µL lysis buffer containing 50 µL Caspase Glo 3/7 solution and incubated for 15 min. Results were observed by measuring the luminescence signal using KOMM-Nr (Berthold Technologies, Bad Wildbad, Germany) and normalized with the total protein concentration measured by the Bradford assay. Data were analyzed using GraphPad Prism version 6.0 for Windows with two tail t-test for statistical data analysis […]
(§3) Figure S8. NSC697923 enhances Dox sensitivity of cancer cells. (a, b) Effect of NSC697923 to cancer cells’ viability in Dox treatment . Dox–induced cell death of H1299 ( a) and HCT116 ( b) was quantified by colorimetric cell viability assay after treating 5 µM NSC697923 for 12 h followed by 12h treatment of Dox (0.0 […]
NSC697923. Caspase activity was quantified by luminogenic caspase activity assay. All error bars represent the standard deviation from at least 4 independent experiments. *, P<0.05; **, P<0.01; ***, P<0.001.

For series [2], the system named is H1299 cells. Put plainly: Luminogenic caspase activity assay (Caspase Glo 3/7), H1299. The following applies: 10 µM CR or 5 µM NSC697923 with Dox. In kind it is cell-based. The method, then: as §2
(§4) Cell viability assays were performed as described previously. For the caspase assays, the media were removed, and cells were lysed in 200 µL lysis buffer containing 50 µL Caspase Glo 3/7 solution and incubated for 15 min. Results were observed by measuring the luminescence signal using KOMM-Nr (Berthold Technologies, Bad Wildbad, Germany) and normalized with the total protein concentration measured by the Bradford assay. […]
as §3
(§5) NSC697923. Caspase activity was quantified by luminogenic caspase activity assay. […]

Another series concerns the target UCHL1 (Homo sapiens). The series is described as follows: Deubiquitination assay, cleavage of GST-Ubiquitin-HA by UCHL1 (SDS-PAGE band intensity). The series is classed as biochemical. The method, then: as §1
The test system of the next series is HCT116 cells. Put plainly: Luminogenic caspase activity assay (Caspase Glo 3/7), HCT116. The series is classed as cell-based. The following applies: 10 µM CR or 5 µM NSC697923 with Dox. As to the method:
as §2, §4, §3, §5

The test system of another series is Ubc13. The series is described as follows: In vitro K63 polyubiquitination reaction with Ubc13. In kind it is biochemical. The conditions noted are these: purified Ubc13 (Mms2/Ubc13), increasing CR (50–500 µM), 500 µM ubiquitin, 37 °C. The method, then:
Figure 5 CR inhibits K48- and K63- polyubiquitination in vitro. (a) Interacting surface of ubiquitin when complex with E2-25K and Ubc13 compared with the surface used for CR binding. (b,c) CR inhibits K48- (b) and K63-ubiquitinations (c). First, mono ubiquitin was mixed with UBA1, E2-25K or complex Mms2/Ubc13, and 0–500 µM CR in the presence or absence of ATP regeneration system. Then the mixture was incubated at 37 °C for […]. The reaction was stopped by adding 5X SDS loading buffer and the results were analyzed with 15% SDS-PAGE.
as §1, with “CR. The reactions were incubated at 37 °C for 4 h and 16 h for K63- and K48 polyubiquitination respectively. The reaction was terminated by adding 5X SDS sampling buffer and results were subjected to 15% SDS-PAGE followed by Coomassie Blue staining for analyses.” for “CR.”

The nature of series [3]: Cell membrane permeability (inferred from intracellular action). The conditions noted are these: in contrast to CSB6B; inferred from intracellular effect on ubiquitination.

One molecule from PMC6471062, “Suppression of the Ubiquitin Pathway by Small Molecule Binding to Ubiquitin Enhances Doxorubicin Sensitivity of the Cancer Cells” (Molecules, 2019) can be followed below.

Molecules are shown by their SMILES.

Sequence of USP5 (Homo sapiens) (P45974 2-858, other chains not shown): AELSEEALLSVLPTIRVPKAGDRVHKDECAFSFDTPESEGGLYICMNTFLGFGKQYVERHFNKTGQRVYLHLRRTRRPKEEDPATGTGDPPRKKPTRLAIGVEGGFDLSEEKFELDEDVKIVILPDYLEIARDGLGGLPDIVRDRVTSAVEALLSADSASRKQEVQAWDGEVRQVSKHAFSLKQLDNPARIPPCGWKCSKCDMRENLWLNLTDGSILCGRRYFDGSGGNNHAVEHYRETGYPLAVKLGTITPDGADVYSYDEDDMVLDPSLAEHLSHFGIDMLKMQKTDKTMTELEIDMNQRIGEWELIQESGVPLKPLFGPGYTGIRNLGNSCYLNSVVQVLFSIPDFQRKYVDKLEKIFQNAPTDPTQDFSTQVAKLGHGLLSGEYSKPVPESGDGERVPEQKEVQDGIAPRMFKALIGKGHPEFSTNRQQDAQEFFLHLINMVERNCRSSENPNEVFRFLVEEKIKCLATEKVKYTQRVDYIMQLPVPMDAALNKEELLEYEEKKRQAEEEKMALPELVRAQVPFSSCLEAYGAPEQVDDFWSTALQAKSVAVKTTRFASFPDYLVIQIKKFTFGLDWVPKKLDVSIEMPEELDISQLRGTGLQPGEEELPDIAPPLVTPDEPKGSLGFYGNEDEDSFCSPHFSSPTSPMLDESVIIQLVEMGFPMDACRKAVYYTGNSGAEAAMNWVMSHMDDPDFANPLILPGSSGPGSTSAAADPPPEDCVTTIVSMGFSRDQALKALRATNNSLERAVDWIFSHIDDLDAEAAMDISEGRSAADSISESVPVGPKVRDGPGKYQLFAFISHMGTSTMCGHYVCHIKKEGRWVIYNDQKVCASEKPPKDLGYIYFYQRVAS
Sequence of UCHL1 (Homo sapiens) (P09936 whole entry, other chains not shown): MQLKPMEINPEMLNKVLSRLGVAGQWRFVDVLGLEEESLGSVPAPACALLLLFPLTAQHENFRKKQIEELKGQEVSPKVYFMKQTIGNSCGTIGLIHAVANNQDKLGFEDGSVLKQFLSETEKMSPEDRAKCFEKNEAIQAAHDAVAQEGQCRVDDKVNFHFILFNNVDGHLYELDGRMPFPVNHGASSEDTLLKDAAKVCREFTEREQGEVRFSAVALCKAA

Take `Nc1c(/N=N/c2ccc(-c3ccc(/N=N/c4cc(S(=O)(=O)O)c5ccccc5c4N)cc3)cc2)cc(S(=O)(=O)O)c2ccccc12` [CR, Congo red]: the IC50 on USP5 (Homo sapiens) is 13.4 ± 2.64 µM; against UCHL1 (Homo sapiens), 26.9 ± 2.99 µM. In the series with USP4, the “Effect on USP4-enhanced β-catenin transcriptional activity (TOP flash)” value is reported as “this enhancement was antagonized by CR treatment”. For the same molecule, the “Effect on Dox-induced cell death, H1299” value with H1299 cells [1] was “significantly enhanced Dox-induced cell death”. The “Effect on caspase activity of Dox-treated H1299 cells” value in the series with H1299 cells [2] is “Enhanced caspase activity”. Further, the “Effect on caspase activity of Dox-treated HCT116 cells” value in the series on HCT116 cells was “Enhanced caspase activity”. Also, the “Inhibition of K63 polyubiquitination” value in the series on Ubc13 is “effectively inhibited by CR in a dose-dependent manner”. In addition, in series [3], the Cell permeability entry is listed as “better cell permeability”.

What is called IC50 is the concentration that inhibits the measured activity by half.
